The values that follow come from ChEMBL document CHEMBL3414556, “Targeting aldose reductase for the treatment of diabetes complications and inflammatory diseases: new insights and future directions” (J Med Chem, 2015).

The structures appear in SMILES notation.

Assay [1] concerns the target Aldo-keto reductase family 1 member B10 (Homo sapiens, UniProt O60218). Kind of assay: Inhibition of wild-type N-terminal 6-His tagged AKR1B10 (unknown origin) expressed in Escherichia coli BL21(DE3) assessed as pyridine-3-aldehyde reduction by spectrophotometry.
The target of assay [2] is T1, Aldo-keto reductase family 1 member B1 (Homo sapiens, UniProt P15121). Put plainly: Inhibition of human AR by fluorescence assay.
Assay [3] deals with T1, Aldo-keto reductase family 1 member B1. Kind of assay: Inhibition of human AR.

Sequence of Aldo-keto reductase family 1 member B10 (O60218 whole entry): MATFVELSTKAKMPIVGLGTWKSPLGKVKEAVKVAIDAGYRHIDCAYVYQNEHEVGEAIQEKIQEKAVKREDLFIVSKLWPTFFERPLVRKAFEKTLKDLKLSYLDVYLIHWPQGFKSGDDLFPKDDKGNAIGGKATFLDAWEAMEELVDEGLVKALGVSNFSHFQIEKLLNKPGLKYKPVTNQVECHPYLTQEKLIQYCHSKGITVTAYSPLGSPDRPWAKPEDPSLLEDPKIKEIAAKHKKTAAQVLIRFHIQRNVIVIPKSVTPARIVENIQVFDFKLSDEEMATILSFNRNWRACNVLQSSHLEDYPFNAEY

For orientation: IC50 means the concentration needed to halve the response being measured. For the compound `O=C(O)Cc1ccccc1Nc1c(Cl)cccc1Cl` [DICLOFENAC], in assay [1], the IC50 worked out at 1.9 µM.
Same read-out and setting: the value for `O=C(O)c1ccccc1Nc1cccc(C(F)(F)F)c1` [FLUFENAMIC ACID] was 0.76 µM.
`Cc1cccc(Nc2ccccc2C(=O)O)c1C` [MEFENAMIC ACID]: the results for the IC50 in assay [1] and in assay [2] were 1.6 µM and 77 µM, respectively.
With `CC(=O)Oc1ccccc1C(=O)Nc1ncc([N+](=O)[O-])s1` [NITAZOXANIDE], in assay [3], 8.22 µM corresponded to half-maximal inhibition (IC50).
